Assay results: patent US5358712A, “Radiopharmaceutical agents for the detection of Alzheimer's disease” (Regents of the University of Minnesota, priority 1993, dated 1994)

Key:
[1] = Blocking experiments: inhibition of radiotracer accumulation in the rat by coadministered compound; assay type: in vivo, rat (male Wistar); conditions: rat, iv, rat, iv, 60 min
Experimental: *Animals in group 1 received an iv injection of (+)4-[^125 l]HIPP
only. For groups 2, 3, and 4, the radiotracer was coadministered with the
hydrochlorides of (+)7 (0.53 mg/kg), (-)7 (0.53 mg/kg) and vesamicol (0.3
Four groups of male Wistar rats (n=3) were used in these experiments. All animals received an iv dose of 8-10 μCi of the radiotracer in 0.1 ml of 50% aq. ethanol. Additionally, in groups 2, 3 and 4, the radiotracer was coadministered with (+)-HBrPP.HCl(1.3 μmol/kg), (-)-HBrPP.HCl(1.3 μmol/kg) and (dl)-vesamicol hydrochloride (1.1 μmol/kg), respectively. At 60 min. post-injection, blood was collected by cardiac puncture and the animals sacrificed as described above. The data was analyzed as outlined above.
NOTE: The dose of radiotracer injected was 5-7 mCi. Group I was the
control, injected with the radiotracer only. Group II included the
simultaneous injection of "cold"(dl)3-HIPP (HCl) (0.53 mg/kg). Group III
included the simultaneous injection of (dl) vesamicol (HCl) (0.31 mg/kg).
All rats were sacrificed at one hour postinjection.
NOTE: Group I was the control, injected with the radiotracer only. Group
II included the simultaneous injection of "cold"(dl)3-HIPP (HCl) (0.53
mg/kg). Group III included the simultaneous injection of (dl) vesamicol
hydrochloride (0.31 mg/kg). The dose of radiotracer was 8-9 μCi. All
rats were sacrificed at one hour postinjection.
NOTE: Group I received (+)[^125 l]13 only. Group II received the (+)
radiotracer coinjected with 0.31 mg/kg (dl)vesamicol hydrochloride. Group
III received (-)[^125 l]13 only. Group IV received the (-) radiotrace
coinjected with 0.31 mg/kg (dl)vesamicol hydrochloride. All animals were
sacrificed at one hour postinjection. The dose of radiotracer injected pe

[2] = Tissue distribution (biodistribution) of radioiodinated compound in the rat; conditions: rat, iv; for tissue uptake at 1 h: 60 min; for tissue uptake at 3 h: 180 min
Experimental: Four groups of male Wistar rats (with four animals per group) weighing 200-350 g were used in these experiments. Each animal received, while under ether anesthesia, an intravenous injection of the radiotracer (10-20 μCi) dissolved in 0.1 ml of 50% aqueous ethanol. At 5, 30, and 60 and 180 min. post-injection, blood was collected from the anesthetized animals by cardiac puncture, and the animal was immediately sacrificed by cardiectomy. The organs and tissues of interest were harvested, transferred to preweighed tubes and counted in a Beckman gamma counter. The tubes were subsequently reweighed to give the weight of the corresponding tissues. Preweighed tubes containing ^1 -ml samples of a 1:100 dilution of the injection dose were also counted and used as reference for calculating the tissue accumulation of radioactivity. The accumulation of radiotracer was expressed as a percentage of injected dose per gram of tissue.

[3] = blood, + (dl)-vesamicol HCl 0.3 (Table 3) or 0.31 mg/kg, read-out: radioactivity in blood
[4] = blood, radiotracer only (control), read-out: radioactivity in blood
[5] = brain, + (dl)-vesamicol HCl 0.3 (Table 3) or 0.31 mg/kg, read-out: radioactivity in brain
[6] = brain, radiotracer only (control), read-out: radioactivity in brain
[7] = heart, + (dl)-vesamicol HCl 0.3 (Table 3) or 0.31 mg/kg, read-out: radioactivity in heart
[8] = heart, radiotracer only (control), read-out: radioactivity in heart
[9] = kidney, + (dl)-vesamicol HCl 0.3 (Table 3) or 0.31 mg/kg, read-out: radioactivity in kidney
[10] = kidney, radiotracer only (control), read-out: radioactivity in kidney
[11] = liver, + (dl)-vesamicol HCl 0.3 (Table 3) or 0.31 mg/kg, read-out: radioactivity in liver
[12] = liver, radiotracer only (control), read-out: radioactivity in liver
[13] = lung, + (dl)-vesamicol HCl 0.3 (Table 3) or 0.31 mg/kg, read-out: radioactivity in lung
[14] = lung, radiotracer only (control), read-out: radioactivity in lung
[15] = muscle, + (dl)-vesamicol HCl 0.3 (Table 3) or 0.31 mg/kg, read-out: radioactivity in muscle
[16] = muscle, radiotracer only (control), read-out: radioactivity in muscle
[17] = spleen, + (dl)-vesamicol HCl 0.3 (Table 3) or 0.31 mg/kg, read-out: radioactivity in spleen
[18] = spleen, radiotracer only (control), read-out: radioactivity in spleen
[19] = kidney, radioactivity in kidney
[20] = muscle, radioactivity in muscle
[21] = spleen, radioactivity in spleen

OC(Cc1cccc([125I])c1)CN1CCC(c2ccccc2)CC1 (single isomer, unassigned; (+)) [(+)-[^125 l]12, 2-Hydroxyl-3-(3-iodophenyl)-1-[1-(4-phenylpiperidinyl)]propane]
tissue uptake at 1 h [1, 3]: 0.12 %ID/g
tissue uptake at 1 h ([1]; blood, + cold (dl)3-HIPP HCl 0.53 mg/kg, read-out: radioactivity in blood): 0.13 %ID/g
tissue uptake at 1 h [1, 4]: 0.09 %ID/g
tissue uptake at 1 h [1, 5]: 0.26 %ID/g
tissue uptake at 1 h ([1]; brain, + cold (dl)3-HIPP HCl 0.53 mg/kg, read-out: radioactivity in brain): 0.24 %ID/g
tissue uptake at 1 h [1, 6]: 0.76 %ID/g
tissue uptake at 1 h [1, 7]: 0.13 %ID/g
tissue uptake at 1 h ([1]; heart, + cold (dl)3-HIPP HCl 0.53 mg/kg, read-out: radioactivity in heart): 0.15 %ID/g
tissue uptake at 1 h [1, 8]: 0.36 %ID/g
tissue uptake at 1 h [1, 9]: 0.55 %ID/g
tissue uptake at 1 h ([1]; kidney, + cold (dl)3-HIPP HCl 0.53 mg/kg, read-out: radioactivity in kidney): 0.62 %ID/g
tissue uptake at 1 h [1, 10]: 1.48 %ID/g
tissue uptake at 1 h [1, 11]: 0.87 %ID/g
tissue uptake at 1 h ([1]; liver, + cold (dl)3-HIPP HCl 0.53 mg/kg, read-out: radioactivity in liver): 0.71 %ID/g
tissue uptake at 1 h [1, 12]: 0.86 %ID/g
tissue uptake at 1 h [1, 13]: 0.71 %ID/g
tissue uptake at 1 h ([1]; lung, + cold (dl)3-HIPP HCl 0.53 mg/kg, read-out: radioactivity in lung): 0.92 %ID/g
tissue uptake at 1 h [1, 14]: 1.52 %ID/g
tissue uptake at 1 h [1, 15]: 0.12 %ID/g
tissue uptake at 1 h ([1]; muscle, + cold (dl)3-HIPP HCl 0.53 mg/kg, read-out: radioactivity in muscle): 0.11 %ID/g
tissue uptake at 1 h [1, 16]: 0.17 %ID/g
tissue uptake at 1 h [1, 17]: 0.48 %ID/g
tissue uptake at 1 h ([1]; spleen, + cold (dl)3-HIPP HCl 0.53 mg/kg, read-out: radioactivity in spleen): 0.5 %ID/g
tissue uptake at 1 h [1, 18]: 1.14 %ID/g
tissue uptake at 5 min ([2]; blood, radioactivity in blood): 0.08 %ID/g
tissue uptake at 1 h ([2]; blood, radioactivity in blood): 0.09 %ID/g
tissue uptake at 3 h ([2]; blood, radioactivity in blood): 0.08 %ID/g
tissue uptake at 5 min ([2]; brain, radioactivity in brain): 1.03 %ID/g
tissue uptake at 1 h ([2]; brain, radioactivity in brain): 0.82 %ID/g
tissue uptake at 5 min ([2]; heart, radioactivity in heart): 1.3 %ID/g
tissue uptake at 1 h ([2]; heart, radioactivity in heart): 0.38 %ID/g
tissue uptake at 3 h ([2]; heart, radioactivity in heart): 0.16 %ID/g
tissue uptake at 5 min [2, 19]: 2.55 %ID/g
tissue uptake at 1 h [2, 19]: 1.28 %ID/g
tissue uptake at 3 h [2, 19]: 0.75 %ID/g
tissue uptake at 5 min ([2]; liver, radioactivity in liver): 1.17 %ID/g
tissue uptake at 1 h ([2]; liver, radioactivity in liver): 0.89 %ID/g
tissue uptake at 3 h ([2]; liver, radioactivity in liver): 0.51 %ID/g
tissue uptake at 5 min ([2]; lung, radioactivity in lung): 7.34 %ID/g
tissue uptake at 1 h ([2]; lung, radioactivity in lung): 1.42 %ID/g
tissue uptake at 3 h ([2]; lung, radioactivity in lung): 0.61 %ID/g
tissue uptake at 5 min [2, 20]: 0.27 %ID/g
tissue uptake at 1 h [2, 20]: 0.16 %ID/g
tissue uptake at 3 h [2, 20]: 0.12 %ID/g
tissue uptake at 5 min [2, 21]: 0.5 %ID/g
tissue uptake at 1 h [2, 21]: 1.12 %ID/g
tissue uptake at 3 h [2, 21]: 0.66 %ID/g

OC(Cc1ccc([125I])cc1)CN1CCC(c2ccccc2)CC1 (single isomer, unassigned; (-)) [(-)-4-[^125 l]HIPP, 2-Hydroxy-3-(4-iodophenyl)-1-(4-phenylpiperidyl)propane]
tissue uptake at 1 h ([1]; blood, + (+)-7 HCl 0.53 mg/kg, read-out: radioactivity in blood): 0.05 %ID/g
tissue uptake at 1 h ([1]; blood, + (-)-7 HCl 0.53 mg/kg, read-out: radioactivity in blood): 0.04 %ID/g
tissue uptake at 1 h [1, 3]: 0.02 %ID/g
tissue uptake at 1 h [1, 4]: 0.02 %ID/g
tissue uptake at 1 h ([1]; brain, + (+)-7 HCl 0.53 mg/kg, read-out: radioactivity in brain): 0.28 %ID/g
tissue uptake at 1 h ([1]; brain, + (-)-7 HCl 0.53 mg/kg, read-out: radioactivity in brain): 0.29 %ID/g
tissue uptake at 1 h [1, 5]: 0.31 %ID/g
tissue uptake at 1 h [1, 6]: 0.93 %ID/g
tissue uptake at 1 h ([1]; heart, + (+)-7 HCl 0.53 mg/kg, read-out: radioactivity in heart): 0.12 %ID/g
tissue uptake at 1 h ([1]; heart, + (-)-7 HCl 0.53 mg/kg, read-out: radioactivity in heart): 0.13 %ID/g
tissue uptake at 1 h [1, 7]: 0.13 %ID/g
tissue uptake at 1 h [1, 8]: 0.79 %ID/g
tissue uptake at 1 h ([1]; kidney, + (+)-7 HCl 0.53 mg/kg, read-out: radioactivity in kidney): 0.46 %ID/g
tissue uptake at 1 h ([1]; kidney, + (-)-7 HCl 0.53 mg/kg, read-out: radioactivity in kidney): 0.42 %ID/g
tissue uptake at 1 h [1, 9]: 0.35 %ID/g
tissue uptake at 1 h [1, 10]: 1.9 %ID/g
tissue uptake at 1 h [1, 11]: 4.18 %ID/g
tissue uptake at 1 h [1, 12]: 2.68 %ID/g
tissue uptake at 1 h ([1]; lung, + (+)-7 HCl 0.53 mg/kg, read-out: radioactivity in lung): 1.64 %ID/g
tissue uptake at 1 h ([1]; lung, + (-)-7 HCl 0.53 mg/kg, read-out: radioactivity in lung): 1.04 %ID/g
tissue uptake at 1 h [1, 13]: 0.95 %ID/g
tissue uptake at 1 h [1, 14]: 3.63 %ID/g
tissue uptake at 1 h ([1]; muscle, + (+)-7 HCl 0.53 mg/kg, read-out: radioactivity in muscle): 0.07 %ID/g
tissue uptake at 1 h ([1]; muscle, + (-)-7 HCl 0.53 mg/kg, read-out: radioactivity in muscle): 0.08 %ID/g
tissue uptake at 1 h [1, 15]: 0.06 %ID/g
tissue uptake at 1 h [1, 16]: 0.21 %ID/g
tissue uptake at 1 h ([1]; spleen, + (+)-7 HCl 0.53 mg/kg, read-out: radioactivity in spleen): 0.57 %ID/g
tissue uptake at 1 h ([1]; spleen, + (-)-7 HCl 0.53 mg/kg, read-out: radioactivity in spleen): 0.57 %ID/g
tissue uptake at 1 h [1, 17]: 0.6 %ID/g
tissue uptake at 1 h [1, 18]: 1.42 %ID/g
